Measurements from ChEMBL document CHEMBL6115027, “Bisboronic Ester-Enabled Redox-Targeted Cancer Therapy: A Cascade ROS Consumption Approach for Efficient Elimination of Cancer Cells” (J Med Chem, 2025).
The source made the active and inactive calls. The rule behind the calls is not given here.

Experiments:
HeLa [1] = assay: Cytotoxicity against human HeLa cells assessed as reduction in cell viability incubated for 24 hrs by CCK-8 assay; format: functional, cell-based
[2] = Reactivity of compound assessed as consumption of H2O2 by measuring phenol intermediate formation after 1 hr relative to control; format: physicochemical
HeLa [3] = assay: Induction of autophagy in human HeLa cells assessed as change in caspase 4 activity at 87.04 uM incubated for 48 hrs at wavelength of 405 nm by MDC staining based flow cytometric analysis (reference value: 0.052); format: functional
HeLa [4] = assay: Induction of autophagy in human HeLa cells assessed as change in caspase 4 activity at 21.76 uM incubated for 48 hrs at wavelength of 405 nm by MDC staining based flow cytometric analysis (reference value: 0.052); format: functional
HeLa [5] = assay: Induction of apoptosis in human HeLa cells assessed as early apoptotic cells at 27.2 uM incubated for 48 hrs by Annexin V-Alexa fluor 647 and propidium iodide staining based flow cytometry relative to control; format: functional
HeLa [6] = assay: Induction of autophagy in human HeLa cells assessed as change in caspase 1 activity at 87.04 uM incubated for 48 hrs by MDC staining based flow cytometric analysis (reference value: 0.06); format: functional
HeLa [7] = assay: Induction of ROS generation in human HeLa cells assessed as increase in ROS level incubated for 1 to 36 hrs by DCFH-DA staining based confocal imaging analysis; format: functional, cell-based; details: time 1-36 hrs
HeLa [8] = assay: Induction of apoptosis in human HeLa cells assessed as viable cells at 6.8 uM incubated for 48 hrs by Annexin V-Alexa fluor 647 and propidium iodide staining based flow cytometry relative to control; format: functional; details: read-out: Activity
HeLa [9] = assay: Induction of autophagy in human HeLa cells assessed as change in caspase 1 activity at 43.52 uM incubated for 48 hrs by MDC staining based flow cytometric analysis (reference value: 0.06; format: functional
HeLa [10] = assay: Induction of autophagy in human HeLa cells assessed as change in caspase 4 activity at 43.52 uM incubated for 48 hrs at wavelength of 405 nm by MDC staining based flow cytometric analysis (reference value: 0.052); format: functional
HeLa [11] = assay: Induction of apoptosis in human HeLa cells assessed as viable cells at 13.6 uM incubated for 48 hrs by Annexin V-Alexa fluor 647 and propidium iodide staining based flow cytometry relative to control; format: functional; details: read-out: Activity
HeLa [12] = assay: Induction of autophagy in human HeLa cells assessed as change in caspase 4 activity at 10.88 uM incubated for 48 hrs at wavelength of 405 nm by MDC staining based flow cytometric analysis (reference value: 0.052); format: functional
HeLa [13] = assay: Induction of pyroptosis in human HeLa cells at 10.88 to 43.52 uM; format: functional, cell-based; details: dose 10.88-43.52 µM
HeLa [14] = assay: Induction of apoptosis in human HeLa cells assessed as necrotic cells at 6.8 uM incubated for 48 hrs by Annexin V-Alexa fluor 647 and propidium iodide staining based flow cytometry relative to control; format: functional
T-24 = assay: Cytotoxicity against human T24 cells assessed as reduction in cell viability incubated for 24 hrs by CCK-8 assay; format: functional, cell-based; details: T-24, 24 h
HeLa [15] = assay: Induction of apoptosis in human HeLa cells assessed as late apoptotic cells at 6.8 uM incubated for 48 hrs by Annexin V-Alexa fluor 647 and propidium iodide staining based flow cytometry relative to control; format: functional
HeLa [16] = assay: Induction of autophagy in human HeLa cells assessed as change in caspase 1 activity at 5.44 uM incubated for 48 hrs by MDC staining based flow cytometric analysis (reference value: 0.06); format: functional
HeLa [17] = assay: Induction of apoptosis in human HeLa cells assessed as necrotic cells at 27.2 uM incubated for 48 hrs by Annexin V-Alexa fluor 647 and propidium iodide staining based flow cytometry relative to control; format: functional
HeLa [18] = assay: Induction of ROS generation in human HeLa cells assessed as increase in ROS level incubated for 48 hrs by DCFH-DA staining based confocal imaging analysis; format: functional, cell-based
HeLa [19] = assay: Induction of apoptosis in human HeLa cells assessed as late apoptotic cells at 13.6 uM incubated for 48 hrs by Annexin V-Alexa fluor 647 and propidium iodide staining based flow cytometry relative to control; format: functional
HeLa [20] = assay: Induction of autophagy in human HeLa cells assessed as change in caspase 1 activity at 21.76 uM incubated for 48 hrs by MDC staining based flow cytometric analysis (reference value: 0.06); format: functional
HeLa [21] = assay: Induction of apoptosis in human HeLa cells assessed as necrotic cells at 13.6 uM incubated for 48 hrs by Annexin V-Alexa fluor 647 and propidium iodide staining based flow cytometry relative to control; format: functional
HeLa [22] = assay: Induction of apoptosis in human HeLa cells assessed as late apoptotic cells at 27.2 uM incubated for 48 hrs by Annexin V-Alexa fluor 647 and propidium iodide staining based flow cytometry relative to control; format: functional
HeLa [23] = assay: Induction of autophagy in human HeLa cells assessed as change in caspase 1 activity at 10.88 uM incubated for 48 hrs by MDC staining based flow cytometric analysis (reference value: 0.06); format: functional
HeLa [24] = assay: Induction of apoptosis in human HeLa cells assessed as early apoptotic cells at 6.8 uM incubated for 48 hrs by Annexin V-Alexa fluor 647 and propidium iodide staining based flow cytometry relative to control; format: functional
HeLa [25] = assay: Induction of apoptosis in human HeLa cells assessed as early apoptotic cells at 13.6 uM incubated for 48 hrs by Annexin V-Alexa fluor 647 and propidium iodide staining based flow cytometry relative to control; format: functional
HeLa [26] = assay: Induction of autophagy in human HeLa cells assessed as change in caspase 4 activity at 5.44 uM incubated for 48 hrs at wavelength of 405 nm by MDC staining based flow cytometric analysis (reference value: 0.052); format: functional
HeLa [27] = assay: Induction of apoptosis in human HeLa cells assessed as viable cells at 27.2 uM incubated for 48 hrs by Annexin V-Alexa fluor 647 and propidium iodide staining based flow cytometry relative to control; format: functional; details: read-out: Activity

Question: Which IC50 (HeLa [1]) does the source give for `CC1(C)OB(c2ccc(-c3ccc(B4OC(C)(C)C(C)(C)O4)c(F)c3)cc2F)OC1(C)C` here?
Answer: The IC50 was 2600 nM.

Question: Which IC50 (HeLa [1]) does the source give for `Cc1cc(B2OC(C)(C)C(C)(C)O2)cc(-c2cc(C)cc(B3OC(C)(C)C(C)(C)O3)c2)c1` here?
Answer: The IC50 was 790 nM.

Question: With `CC1(C)OB(c2ccc(-c3ccc(-c4ccc(-c5ccc(B6OC(C)(C)C(C)(C)O6)cc5)cc4)cc3)cc2)OC1(C)C` as the compound, how does the IC50 (HeLa [1]) read?
Answer: The IC50 was 2270 nM.

Question: What does the source list for `CC1(C)OB(c2ccc(-c3ccc(B4OC(C)(C)C(C)(C)O4)cc3)cc2)OC1(C)C`?
Answer: IC50 (HeLa [1]): 1950 nM; Activity [2]: 96%

Question: For `CC1(C)OB(c2cccc(CCc3cccc(B4OC(C)(C)C(C)(C)O4)c3F)c2F)OC1(C)C`, which IC50 (HeLa [1]) is on record?
Answer: Its IC50 is 11800 nM.

Question: For `CC1(C)COB(c2cccc(CCc3cccc(B4OCC(C)(C)CO4)c3)c2)OC1`, which IC50 (HeLa [1]) is on record?
Answer: The IC50 was 3440 nM.

Question: With `CC1(C)OB(c2cc(F)ccc2CCc2ccc(F)cc2B2OC(C)(C)C(C)(C)O2)OC1(C)C` as the compound, how does the IC50 (HeLa [1]) read?
Answer: Its IC50 is 1800 nM.

Question: Which IC50 (HeLa [1]) does the source give for `CC1(C)OB(c2ccc(Cc3ccc(B4OC(C)(C)C(C)(C)O4)c4ccccc34)cc2)OC1(C)C` here?
Answer: Its IC50 is 630 nM.

Question: For `CC1(C)OB(c2ccc(-c3ccc(B4OC(C)(C)C(C)(C)O4)c4ccccc34)c3ccccc23)OC1(C)C`, which IC50 (HeLa [1]) is on record?
Answer: Its IC50 is 690 nM.

Question: For `COc1ccc(-c2ccc(OC)c(B3OC(C)(C)C(C)(C)O3)c2)cc1B1OC(C)(C)C(C)(C)O1`, which IC50 (HeLa [1]) is on record?
Answer: The IC50 was 830 nM.

Question: Which IC50 (HeLa [1]) does the source give for `CC1(C)OB(c2ccc(CCc3ccc(B4OC(C)(C)C(C)(C)O4)cc3)cc2)OC1(C)C` here?
Answer: The IC50 was 710 nM.

Question: For `CC1(C)OB(c2cc(C(F)(F)F)ccc2CCc2ccc(C(F)(F)F)cc2B2OC(C)(C)C(C)(C)O2)OC1(C)C`, which IC50 (HeLa [1]) is on record?
Answer: Its IC50 is 700 nM.

Question: Which IC50 (HeLa [1]) does the source give for `CCC1(CC)OB(c2ccc(Cc3ccc(B4OC(C)(C)C(C)(C)O4)cc3)cc2)OC1(CC)CC` here?
Answer: The IC50 was 2110 nM.

Question: With `CC(C)(C)c1cc(B2OC(C)(C)C(C)(C)O2)cc(-c2cc(B3OC(C)(C)C(C)(C)O3)cc(C(C)(C)C)c2)c1` as the compound, how does the IC50 (HeLa [1]) read?
Answer: The IC50 was 900 nM.

Question: With `CC1(C)OB(c2ccc(CCc3ccc(B4OC(C)(C)C(C)(C)O4)c4ccccc34)c3ccccc23)OC1(C)C` as the compound, how does the IC50 (HeLa [1]) read?
Answer: The IC50 was 3440 nM.

Question: Which OD (HeLa [3]) does the source give for `CC1(C)OB(c2ccc(F)c(CCc3cc(B4OC(C)(C)C(C)(C)O4)ccc3F)c2)OC1(C)C` here?
Answer: The OD was 0.051.

Question: And the OD (HeLa [4])?
Answer: The OD was 0.051.

Question: What about the Activity (HeLa [5]) of the same compound?
Answer: The Activity was 4.28%.

Question: What about the OD (HeLa [6]) of the same compound?
Answer: Its OD is 0.062.

Question: And the IC50 (HeLa [1])?
Answer: The IC50 was 680 nM.

Question: And the Activity (HeLa [7])?
Answer: Its Activity is “inactive”.

Question: What about the viability at 6.8 µM (HeLa [8]) of the same compound?
Answer: Its viability at 6.8 µM is 96.1%.

Question: What about the OD (HeLa [9]) of the same compound?
Answer: Its OD is 0.061.

Question: And the OD (HeLa [10])?
Answer: The OD was 0.051.

Question: And the viability at 13.6 µM (HeLa [11])?
Answer: Its viability at 13.6 µM is 95.6%.

Question: What about the OD (HeLa [12]) of the same compound?
Answer: Its OD is 0.053.

Question: What about the Activity (HeLa [13]) of the same compound?
Answer: The Activity was “Active”.

Question: And the Activity (HeLa [14])?
Answer: Its Activity is 0.38%.

Question: What about the IC50 (T-24) of the same compound?
Answer: The IC50 was 1140 nM.

Question: And the Activity (HeLa [15])?
Answer: The Activity was 0.073%.

Question: And the OD (HeLa [16])?
Answer: Its OD is 0.058.

Question: What about the Activity (HeLa [17]) of the same compound?
Answer: Its Activity is 1.41%.

Question: And the Activity (HeLa [18])?
Answer: Its Activity is “Active”.

Question: And the Activity (HeLa [19])?
Answer: The Activity was 0.41%.

Question: And the OD (HeLa [20])?
Answer: Its OD is 0.06.

Question: And the Activity (HeLa [21])?
Answer: The Activity was 1.54%.

Question: What about the Activity (HeLa [22]) of the same compound?
Answer: Its Activity is 0.63%.

Question: And the OD (HeLa [23])?
Answer: Its OD is 0.062.

Question: What about the Activity (HeLa [24]) of the same compound?
Answer: The Activity was 1.43%.

Question: And the Activity (HeLa [25])?
Answer: Its Activity is 2.44%.

Question: What about the OD (HeLa [26]) of the same compound?
Answer: The OD was 0.052.

Question: What about the viability at 27.2 µM (HeLa [27]) of the same compound?
Answer: Its viability at 27.2 µM is 93.7%.

Question: With `CC1(C)COB(c2ccc(CCc3ccc(B4OCC(C)(C)CO4)cc3)cc2)OC1` as the compound, how does the IC50 (HeLa [1]) read?
Answer: The IC50 was 870 nM.

Question: Which IC50 (HeLa [1]) does the source give for `CC1(C)OB(c2cc(C(=O)Oc3ccc(-c4ccccc4)cc3)cc(-c3cc(B4OC(C)(C)C(C)(C)O4)cc(C(=O)Oc4ccc(-c5ccccc5)cc4)c3)c2)OC1(C)C` here?
Answer: The IC50 was 700 nM.

Question: For `CC1(C)OB(c2cc(C(=O)Oc3ccc4c(c3)OCO4)cc(-c3cc(B4OC(C)(C)C(C)(C)O4)cc(C(=O)Oc4ccc5c(c4)OCO5)c3)c2)OC1(C)C`, which IC50 (HeLa [1]) is on record?
Answer: Its IC50 is 1000 nM.

Question: Which IC50 (HeLa [1]) does the source give for `CC1(C)OB(c2ccc(Cc3ccc(B4OC(C)(C)C(C)(C)O4)cc3)cc2)OC1(C)C` here?
Answer: Its IC50 is 3150 nM.
